# According to publication PMC10958470 (Virus Research, 2024):
# pIC50: −log10 of the molar value. Values joined by “and” are separate entries in the source; they are usually repeats but may differ in a detail not shown here. Equal entries are not always repeated. Structures can show the parent of a compound that is named as a salt. Where two headings read alike, the source gives them in different places.
# Tests used:
# [1] = biological target: SARS-CoV-2 helicase (nsp13) (Severe acute respiratory syndrome coronavirus 2, UniProt P0DTD1); test: biochemical; assay type: biochemical
# [2] = biological target: SARS-CoV-2 RdRp nsp12/7/8 complex (Severe acute respiratory syndrome coronavirus 2, UniProt P0DTD1); test: biochemical; assay type: biochemical; conditions: for pIC50: read-out: RdRp IC50; for IC50: RdRp IC50 [µM]; for inhibition at 20 µM: read-out: RdRp Inhibition [%] 20 µM (PS Inhibition RdRp [%])
# SARS-CoV-2 helicase = SARS-CoV-2 helicase (Severe acute respiratory syndrome coronavirus 2, UniProt P0DTD1); assay type: binding
# [3] = biological target: SARS-CoV-2 nsp13 NTPase activity (Severe acute respiratory syndrome coronavirus 2, UniProt P0DTD1); test: biochemical; assay type: biochemical; conditions: for inhibition at 20 µM: read-out: ATPase inhibition [%] 20 µM (HC Helicase ATPase inhibition [%])
# RdRp complex = RdRp complex (Severe acute respiratory syndrome coronavirus 2, UniProt P0DTD1); assay type: binding, SARS-CoV-2
# [4] = read-out: DTT Helicase unwinding inhibition [%] 2.5 µM triplicates
# [5] = read-out: Helicase Inhibition [%] 20 µM (PS Inhibition Helicase [%])
# [6] = read-out: Helicase unwinding inhibition 2.5 µM triplicates
Molecule,Helicase Inhibition [%] 20 µM (PS Inhibition Helicase [%]) [1] [%],PicoGreen effect [%] 20 µM (annealed dsDNA substrate) [%],RdRp Inhibition [%] 20 µM (PS Inhibition RdRp [%]) [2] [%],"inhibition at 20 µM [1, 5] [%]",IC50 [2] [µM],inhibition at 20 µM [2] [%],further results
N#C/C(=C\c1ccc(O)c(O)c1)C(=O)OCCc1cccs1 [2-TEDC],8.66,7.15,97.86,–,–,–,pIC50 [2]: 5.10
O=C(O[C@@H]1Cc2c(O)cc(O)cc2O[C@@H]1c1cc(O)c(O)c(O)c1)c1cc(O)c(O)c(O)c1 [(−)-epigallocatechin gallate],–,–,85.49,96.4,–,–,"DTT nsp13 inhibition [%] 20 µM (DTT HC Helicase inhibition [%]) [1]: 78.10%; inhibition at 2.5 µM [1, 4]: 73.5%; Helicase Tm °C 20 µM (SARS-CoV-2 helicase): 38.4 °C; Helicase Tm °C 100 µM (SARS-CoV-2 helicase): 39.6 °C; effect on helicase Tm (SARS-CoV-2 helicase): did not result in a Tm change; DTT Helicase ATPase activity PLUS DNA substrate 2 µM [3]: 31.66; DTT Helicase ATPase activity [%] 2 µM [3]: 43.42%; gain of ATPase activity reduction in the presence of dsDNA substrate [3]: 10–15%"
"Nc1ncnc2c1ncn2[C@@H]1O[C@H](COP(=O)(O)OP(=O)(O)OP(=O)(O)O)[C@@H](O)[C@H]1O [ATP, adenosine triphosphate]",–,–,–,–,–,–,"Kmapp (mM) ATP, - DTT [1]: 1.9 mM; apparent Kmapp (RdRp substrates) [2]: 102.7 µM"
O=C(O)c1ccccc1Nc1ccc(CCc2ccc(Cl)c(Cl)c2)cc1 [PD-118057],7.76,11.19,81.81,–,–,–,pIC50 [2]: < 4.70
C=CCn1c(CSc2ccccc2[N+](=O)[O-])n[nH]c1=S [SSYA10-001],–,–,–,–,–,–,"inhibition of helicase unwinding activity in presence of DTT [1]: effectively eliminated the inhibition; inhibition of helicase NTPase activity, absence of DTT [3]: inhibits NTPase activity only in the absence of DTT"
CC(C)c1ccccc1Cc1cc(C(=O)Nc2ccc(S(=O)(=O)c3ccccc3C(C)(C)C)cc2)c(O)c(O)c1O [TW-37],3.76,3.9,89.4,–,–,–,pIC50 [2]: 4.86
OC[C@H]1O[C@H]([S-])[C@H](O)[C@@H](O)[C@@H]1O.[Au+] [aurothioglucose],100.73,13.9,4.77,–,–,–,DTT nsp13 inhibition [%] 20 µM (DTT HC Helicase inhibition [%]) [1]: 98.65%; pIC50 ([1]; read-out: DTT Helicase IC50): 4.98; pIC50 ([1]; read-out: Helicase IC50): 5.71; ATPase inhibition [%] 20 µM (HC Helicase ATPase inhibition [%]) [3]: 106.07%
CC1(C)C(/C=C/C=C/C=C/C=C2\N(CCCCS(=O)(=O)O)c3ccc4ccccc4c3C2(C)C)=[N+](CCCCS(=O)(=O)[O-])c2ccc3ccccc3c21 [cardiogreen],–,26.52,4.44,–,–,–,DTT Helicase unwinding inhibition [%] 2.5 µM triplicates [1]: 65% and 65.01%; DTT nsp13 inhibition [%] 20 µM (DTT HC Helicase inhibition [%]) [1]: 94.06%; Helicase unwinding inhibition 2.5 µM triplicates [1]: 66.59; pIC50 ([1]; read-out: DTT Helicase IC50): 5.41; pIC50 ([1]; read-out: Helicase IC50): 5.45; ATPase inhibition [%] 20 µM (HC Helicase ATPase inhibition [%]) [3]: 97.11%; DTT Helicase ATPase activity PLUS DNA substrate 2 µM [3]: 51.49; DTT Helicase ATPase activity [%] 2 µM [3]: 60.43%; Helicase ATPase activity PLUS DNA substrate 2 µM [3]: 32.88; Helicase ATPase activity [%] 2 µM [3]: 45.65%; gain of ATPase activity reduction in the presence of dsDNA substrate [3]: 10–15%; remaining NTPase activity [3]: 60.4%
Cc1cc(N)c2ccccc2[n+]1CCCCCCCCCC[n+]1c(C)cc(N)c2ccccc21 [dequalinium chloride],–,−4.04,–,25.6,4.07,94.6,–
"O=C(Nc1ccc2c(O)cc(S(=O)(=O)[O-])cc2c1)Nc1ccc2c(O)cc(S(=O)(=O)[O-])cc2c1.[Na+].[Na+] [disodium 7,7′-(carbonyldiimino) bis(4-hydroxy-2-naphthalenesulfonate)]",84.75,–,90.5,–,–,–,DTT Helicase unwinding inhibition [%] 2.5 µM triplicates [1]: 6.27%; DTT nsp13 inhibition [%] 20 µM (DTT HC Helicase inhibition [%]) [1]: 65.72%; pIC50 ([1]; read-out: DTT Helicase IC50): < 4.70; DTT Helicase ATPase activity PLUS DNA substrate 2 µM [3]: 103.05; DTT Helicase ATPase activity [%] 2 µM [3]: 103.17%; pIC50 [2]: < 4.70
CC1=NN(c2ccc(C)c(C)c2)C(=O)/C1=N\Nc1cccc(-c2cccc(C(=O)O)c2)c1O [eltrombopag olamine],–,21.05,–,3.09,4.29,95.2,RdRp Tm °C 20 µM (RdRp complex): 41.5 °C; RdRp Tm °C 100 µM (RdRp complex): 43.6 °C
CCOc1ccc2nc3cc(N)ccc3c(N)c2c1 [ethacridine lactate],–,32.09,–,35.5,9.96,80.3,–
O=C(c1cc(O)c(O)c(O)c1)c1ccc(O)c(O)c1O [exifone],–,8.87,–,100,–,36.6,"DTT Helicase unwinding inhibition [%] 2.5 µM triplicates [1]: 99.91%; inhibition at 2.5 µM [1, 4]: 99.9%; inhibition at 2.5 µM [1, 6]: 49.9%; Helicase Tm °C 20 µM (SARS-CoV-2 helicase): 38.3 °C; Helicase Tm °C 100 µM (SARS-CoV-2 helicase): 37.8 °C; effect on helicase Tm (SARS-CoV-2 helicase): decrease in Tm; DTT Helicase ATPase activity PLUS DNA substrate 2 µM [3]: 2.64; DTT Helicase ATPase activity [%] 2 µM [3]: 14.53%; Helicase ATPase activity PLUS DNA substrate 2 µM [3]: 4.96; Helicase ATPase activity [%] 2 µM [3]: 11.33%; gain of ATPase activity reduction in the presence of dsDNA substrate [3]: 10–15%; remaining NTPase activity [3]: 14.5%; inhibition at 20 µM [3]: 104%"
OCCOCCN1CCN(C(c2ccccc2)c2ccc(Cl)cc2)CC1 (centres unmarked) [hydroxyzine pamoate],–,1.28,–,4.28,16.5,76.8,–
C=C1c2cccc(O)c2C(=O)C2=C(O)[C@]3(O)C(=O)C(C(N)=O)=C(O)[C@@H](N(C)C)[C@@H]3[C@@H](O)[C@H]12 [methacycline hydrochloride],–,25.54,–,25.2,6.43,120,–
"O=c1c(O)c(-c2ccc(O)cc2O)oc2cc(O)cc(O)c12 [morin hydrate (aurantica), morin hydrate]",39.33,20.36,95.67,–,–,–,pIC50 [2]: 5.22
O=C(N/N=C/c1ccc([N+](=O)[O-])o1)c1cc([N+](=O)[O-])cc([N+](=O)[O-])c1O [nifursol],–,8.54,–,5.5,11.5,100,–
O=C(O)c1cc(/N=N/c2ccc(O)c(C(=O)O)c2)ccc1O [olsalazine sodium],–,12.75,–,–,14.4,84.7,–
Cc1c(Cl)c(C)[n+]([O-])c(Cl)c1-c1noc(-c2cc(O)c(O)c([N+](=O)[O-])c2)n1 [opicapone],–,6.86,–,–,–,17.9,DTT nsp13 inhibition [%] 20 µM (DTT HC Helicase inhibition [%]) [1]: 51.40%; IC50 ([1]; DTT Helicase IC50 [µM]): 25.5 µM; IC50 ([1]; Helicase IC50 [µM]): 1.1 µM; inhibition at 20 µM ([1]; read-out: DTT nsp13 inhibition [%] 20 µM (DTT HC Helicase inhibition [%])): > 50%; inhibition at 20 µM [3]: 96.9%
CN(C)[C@@H]1C(O)=C(C(N)=O)C(=O)[C@@]2(O)C(O)=C3C(=O)c4c(O)cccc4[C@@](C)(O)[C@H]3[C@H](O)[C@@H]12 [oxytetracycline],–,19.99,–,16.4,16.1,100,–
"CO[C@H](C(=O)[C@@H](O)[C@@H](C)O)[C@@H]1Cc2cc3cc(O[C@H]4C[C@@H](O[C@H]5C[C@@H](O)[C@H](O)[C@@H](C)O5)[C@H](O)[C@@H](C)O4)c(C)c(O)c3c(O)c2C(=O)[C@H]1O[C@H]1C[C@@H](O[C@H]2C[C@@H](O[C@H]3C[C@](C)(O)[C@H](O)[C@@H](C)O3)[C@@H](O)[C@@H](C)O2)[C@H](O)[C@@H](C)O1 [plicamycin (mithramycin), plicamycin]",–,−3.94,–,95.8,–,6.39,"DTT Helicase unwinding inhibition [%] 2.5 µM triplicates [1]: 71.99%; DTT nsp13 inhibition [%] 20 µM (DTT HC Helicase inhibition [%]) [1]: 98.09%; mode of helicase inhibition towards dsDNA substrate [1]: competitive mode of inhibition towards the dsDNA substrate; IC50 ([1]; DTT Helicase IC50 [µM]): 1.35 µM; IC50 ([1]; Helicase IC50 [µM]): 3.57 µM; inhibition at 2.5 µM [1, 4]: 72%; inhibition at 2.5 µM [1, 6]: 39%; Helicase Tm °C 20 µM (SARS-CoV-2 helicase): 38.3 °C; Helicase Tm °C 100 µM (SARS-CoV-2 helicase): 38.9 °C; effect on helicase Tm (SARS-CoV-2 helicase): did not result in a Tm change; DTT Helicase ATPase activity PLUS DNA substrate 2 µM [3]: 133.03; DTT Helicase ATPase activity [%] 2 µM [3]: 114.66%; Helicase ATPase activity PLUS DNA substrate 2 µM [3]: 159.86; Helicase ATPase activity [%] 2 µM [3]: 125.71%; remaining NTPase activity [3]: 114.6%; inhibition at 20 µM [3]: 19.8%"
COc1cc(NC(C)CCCN)c2ncccc2c1 (centres unmarked) [primaquine phosphate],–,1.58,–,7.17,6.56,102,–
O=C(O)c1c(Cl)c(Cl)c(Cl)c(Cl)c1-c1c2cc(I)c(=O)c(I)c-2oc2c(I)c(O)c(I)cc12 [rose bengal sodium salt],–,30.91,–,21.5,> 20,98,–
O=C1OC2(c3cc(I)c(O)c(I)c3Oc3c2cc(I)c(O)c3I)c2c(Cl)c(Cl)c(Cl)c(Cl)c21 [rose-bengal-lactone],−2.61,35.69,99.44,–,–,–,–
FPA-124,–,−3.30,7.70,–,–,–,DTT nsp13 inhibition [%] 20 µM (DTT HC Helicase inhibition [%]) [1]: 64.76%
tyrphostin-AG-835,7.56,11.5,84.15,–,–,–,pIC50 [2]: 5.02
